Earlier results on 1 compound are cited in patent US20250275944A1, “RELATIVE UNDERSUPPLY OF AN AMYLOID BETA AGGREGATION INHIBITOR FOR IMPROVED DETOXIFYING EFFECTS” (Galimedix Therapeutics Inc, priority 2022, published 2025).

The target of this data set is amyloid beta Aβ1-42 (Homo sapiens, UniProt P05067). The settings on record: read-out: binding affinity to amyloid beta Aβ1-42; cited from earlier work.
amyloid beta Aβ1-42, sequence (P05067 672-713 limits assumed): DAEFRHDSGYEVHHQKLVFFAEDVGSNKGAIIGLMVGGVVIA

With `CC(C)(NC(=O)C(N)Cc1c[nH]c2ccccc12)C(=O)O` (stereo not shown) [GAL-101, 2-[2-Amino-3-(1H-indol-3-yl)-propionylamino]-2-methyl-propionic acid], the Kd is 28.9 ± 2.9 nM.
